Tests used:
Type in all cases: cell-based
[1] = system: PGE2 release from RAW264.7 cells; experiment: LPS-stimulated PGE2 release from RAW264.7 cells (immunoassay); conditions: Mus musculus, 2 h pretreatment, 1 μg/mL LPS 20-24 h, read-out: RAW 264.7 PGE2 release EC50
Protocol: RAW 264.7 cells were seeded at 4×10^4 cells per well n complete growth medium in 96 well white TC plates with clear bottoms one day prior to the assay. The next day the cells were washed once and 100 μL fresh growth media was added. Cells were pretreated with 0.5 μL from a 6 point 200× dilution series of the test compounds in DMSO for 2 hours. Following pretreatment with the drugs, the inflammatory response was induced by adding 5 μL of a 20 μg/mL solution of LPS (Sigma). The cells were incubated in the presence of the drugs and 1 μg/mL LPS for another 20-24 hours. Typically after treatment the total DMSO was […] of the culture volume and the final concentrations of the compounds were approximately: 40, 20, 10, 1, 0.2 and 0 μM depending on the MW of each compound. Modified dilution series were prepared as needed to get adequate dose response curves without changing the % DMSO. Samples were run in duplicate or triplicate and included DMSO treated control wells with and without LPS stimulation. Drugs with a known activity such as Parthenolide or DHMEQ were run as experimental controls. After 20-24 hours LPS activation, the media supernatant was collected from the cells and replaced with fresh media. The supernatant samples were cleared by centrifugation at 1,000×g for 5 minutes, transferred to fresh storage plates, and stored frozen at −30° C.
After determining the appropriate supernatant dilutions experimentally, PGE2 levels in the supernatants were quantified using Parameter™ PGE2 Immunoassay (R&D Systems) according to the manufacturer's protocol. 100 µL of the supernatants diluted in Calibrator Diluent and 50 μL of a primary monoclonal anti-PGE2 antibody were added to the microplate wells pre-coated with a goat anti-mouse Ig capture antibody. Then 50 μL of an HRP conjugated PGE2 competitor was added. Controls included non-specific binding (NSB) wells containing Calibrator Diluent but no primary antibody and a recombinant PGE2 standard dilution series (40-5000 pg/mL). The plates were incubated at room temperature for 2 hours with shaking and then washed 5 times with 400 μL 1× Wash Buffer. Equal volumes of Color Reagents A and B were mixed and 200 μL of this HRP Substrate Solution was added to each well on the plate. The blue color was allowed to develop for 30 minutes and then the reaction was stopped using 50 μL of Stop Solution yielding a yellow color. Absorbance at 450 nm with a reference at 595 nm was recorded using a […] DTX 880 Multimode Detector.
The concentration of PGE2 in the unknown samples was determined from a curve-fit of the PGE2 standard absorbance data and multiplying by the dilution factor. The maximum activity achieved in the absence of the inhibitor (DMSO+LPS treated wells) was arbitrarily given a value of 100%; likewise the minimum activity in the absence of the stimulant (no LPS treated wells) was assigned a value of 0%. Inhibition of the amount of PGE2 released in the drug treated wells was calculated relative to the maximum activation in the DMSO+LPS treated control wells (i.e., % inhibition=100−(drug+LPS treated)/(DMSO+LPS treated)). Dose response curves were used to determine the effective concentration to inhibit 50% of the PGE2 released (IC50) by means of a SigmaPlot macro which fits a sigmoidal dose-response curve to the (log 10) μM concentration versus inhibition. […] This technique yields an objective value for the IC50 provided that 50% inhibition was approached at the concentrations tested.

[2] = system: RPMI8226 multiple myeloma cells; experiment: Multiple myeloma growth inhibition (CellTiter-Glo), RPMI 8226; conditions: 48 hours, FIG. 6
Protocol: (§1) Cryogenically stored RPMI 8226 and U266B1 cells (ATCC, Manassas, Va.) were thawed and cultured according to the vendor's recommendations. Cells were plated in 96-well white-wall tissue culture plates at a concentration of 2×10^5 cells/ml (0.1 ml per well) and incubated overnight at 37° C. in a humidified 5% CO2 atmosphere. Compounds were added to each well at the indicated concentrations (0.5 μl of 200×DMSO stock) and incubated with the cells for 48 hours. Cell viability was detected by adding 100 μl CellTiter-Glo Reagent (Promega, Madison, Wis.) to each well, mixing with pipette, and incubating at room temperature for 10 minutes. Luminescence was read with a DTX 880 Multimode Detector (Beckman Coulter, Fullerton, Calif.). Data was analyzed with SigmaPlot 11 (Systat Software, San Jose, Calif.) software.

[3] = system: U266B1 multiple myeloma cells; experiment: Multiple myeloma growth inhibition (CellTiter-Glo), U266B1; conditions: 48 hours, FIG. 7
Protocol: as §1

Compound	EC50 [1] [µM]	growth inhibition of RPMI8226 multiple myeloma cells [2]	growth inhibition of U266B1 multiple myeloma cells [3]
O=C(NC1=CC(=O)C2OC2C1O)c1ccc(C(F)(F)F)cc1O (racemic) [Example 1, 2-hydroxy-N-(2-hydroxy-5-oxo-7-oxabicyclo[4.1.0]hept-3-en-3-yl)-4-(trifluoromethyl)benzamide]	13.3		
O=C(NC1=CC(=O)C2OC2C1O)c1ccc(Cl)cc1O (racemic) [Example 2, (±)-4-chloro-2-hydroxy-N-(2-hydroxy-5-oxo-7-oxabicyclo[4.1.0]hept-3-en-3-yl)benzamide]	5.9		
O=C(NC1=CC(=O)C2OC2C1O)c1cccc(Cl)c1O (racemic) [Example 6, (±)-3-chloro-2-hydroxy-N-(2-hydroxy-5-oxo-7-oxabicyclo[4.1.0]hept-3-en-3-yl)benzamide]	7.2		
O=C(NC1=CC(=O)C2OC2C1O)c1cc2ccccc2cc1O (racemic) [Example 7, (±)-3-hydroxy-N-(2-hydroxy-5-oxo-7-oxabicyclo[4.1.0]hept-3-en-3-yl)-2-naphthamide]	4.6		
CN(C)c1ccc(C(=O)NC2=CC(=O)C3OC3C2O)c(O)c1 (racemic) [Example 10, (±)-4-(dimethylamino)-2-hydroxy-N-(2-hydroxy-5-oxo-7-oxabicyclo[4.1.0]hept-3-en-3-yl)benzamide]		growth inhibition	growth inhibition

Further lines, with some results ahead:

EC50 [1] [µM]	Compound	growth inhibition of RPMI8226 multiple myeloma cells [2]	growth inhibition of U266B1 multiple myeloma cells [3]
10	Cc1ccc(C(=O)NC2=CC(=O)C3OC3C2O)c(O)c1 (racemic) [Example 3, (±)-2-hydroxy-N-(2-hydroxy-5-oxo-7-oxabicyclo[4.1.0]hept-3-en-3-yl)-4-methylbenzamide]		
2.6	Cc1cccc(C(=O)NC2=CC(=O)C3OC3C2O)c1O (racemic) [Example 4, (±)-2-hydroxy-N-(2-hydroxy-5-oxo-7-oxabicyclo[4.1.0]hept-3-en-3-yl)-3-methylbenzamide]		
5.7	COc1ccc(C(=O)NC2=CC(=O)C3OC3C2O)c(O)c1 (racemic) [Example 5, (±)-2-hydroxy-N-(2-hydroxy-5-oxo-7-oxabicyclo[4.1.0]hept-3-en-3-yl)-4-methoxybenzamide]		

Source: patent US20120046357A1, “Benzamide and Napthamide Derivatives Inhibiting Nuclear Factor-Kappa (B) - (NK-kB)” (Profectus Biosciences, Inc., priority 2009, published 2012)
